From patent US10995186B2, “Light-activated preparation of hydrogels” (Otago Innovation Limited, priority 2015, dated 2021) come the findings set out here.

The subject of data set [1] is Breast adenocarcinoma cells (MCF-7).
Procedure: A live/dead assay was performed after 1 day to evaluate the viability of encapsulated MCF-7 cells.
The test system of data set [2] is human articular chondrocytes (HAC).
Procedure: (§1) Articular cartilage biopsies were harvested with ethics approval from a consenting patient. The cartilage was diced into 1 to 2 mm cubes and digested overnight at 37° C. with 0.15% w/v collagenase type II in basic chondrocyte media (DMEM high glucose media supplemented with 10% FCS, 10 mM HEPES, 0.2 mM L-ascorbic acid-2-phosphate, 0.4 mM L-proline and 1% PS). The resulting suspension was filtered through a 100-μm cell strainer (BD Biosciences) to exclude the undigested tissue and centrifuged at 700-g for 4 min. The isolated chondrocytes (HAC) were cultured in basic chondrocyte media and expanded at 37° C. in a humidified 5% CO2/95% air incubator.
(§2) HAC in culture flasks were trypsinised, suspended in basic chondrocyte media, and seeded in 48 well plates at a concentration of 50 HACs/mm^2. The cells were firstly allowed to attach to the surface for 4 hours, then exposed to either 30 mW/cm^2 of UV or visible light (15 minutes), with or without 0.05 wt % of 12959 or 0.2/2 Ru/SPS (mM) respectively. […] After 1 and 7 days, the cells were visualised and quantified using the live/dead assay. […]
(§3) The cells will stain green if alive and red if dead. After staining, the gels were washed with PBS for three times before imaging them using a fluorescence microscope (Zeiss axioimager Z1). The cells were quantified using the ImageJ software and the cell viability was calculated using the equation below:
The test system is the same in data set [3]. Put plainly: Photo-toxicity and radical toxicity evaluation, HAC on 2D surfaces. As to conditions: 7 days post treatment, light plus initiator.
Procedure: as §1, §2, §3
The nature of data set [4]: Deformation of thickness (oxygen inhibition) of Gel-MA/collagen hydrogel. The format is physicochemical. As to conditions: Gel-MA+Collagen 1 discs. Here is the method:
The constructs were then irradiated for 15 minutes in the presences of a photo-initiator and a light source, where the surfaces of the constructs were exposed to oxygen. In a first experiment, the light intensity was kept at 3 mW/cm^2 whereas the photo-initiator concentrations were varied from 0.05 to 0.5 wt % and 0.2/2 mM to 2/20 mM for 12959 and Ru/SPS respectively. In a second experiment the light intensity was varied from 3 to 100 mW/cm^2 while keeping the photo-initiator concentrations constant at 0.05 wt % and 0.2/2 mM for 12959 and Ru/SPS respectively. The level of oxygen inhibition was characterised as the deformation of thickness before (to) and after equilibrium swelling (ts). The deformation of thickness is given by the equation: Deformation of thickness=[(t0−ts)/t0]×100.

Data set [5] has as its system human articular chondrocytes (HAC). Put plainly: GAG assay of HAC encapsulated in Gel-MA hydrogels. As to conditions: at 21 days. The data set is classed as cell-based. Here is the method: Cell-laden Gel-MA samples were digested overnight in 200 μL of 1 mg/ml proteinase-K solution at 56° C. In order to quantify the amount of GAG retained in the gel, the digested samples were reacted with DMMB. The absorbance of the samples was then measured at 492 nm (Fluostar Galaxy BMG Labtechnology). The GAG concentrations were calculated from a standard curve constructed using known concentrations of CS-A. The amount of DNA in the gels was measured using the CyQUANT kit. The cells in the digested samples were firstly lysed and RNA degraded using the provided lysis buffer with RNase A (1.35 KU/ml) added for 1 hour at RT. GR-dye solution was then added to the samples, incubated at RT for 15 minutes then the fluorescence was measured (Fluostar Galaxy BMG Labtechnology). A standard curve was constructed using the DNA provided in the kit.

Data set [6] deals with normal human foreskin fibroblasts (HFF). Nature of the data set: cells. As to conditions: Fibroblast, 96 h.
Data set [7] relates to human ovarian adenocarcinoma cell lines (SKOV3). Put plainly: cells. As to conditions: SK-OV-3, 96 h.
Procedure: (§4) Experiments were carried out with human ovarian adenocarcinoma cell lines (SKOV3) and normal human foreskin fibroblasts (HFF). […] Cells were expanded at 37° C. in a humidified 5% CO2/95% air incubator and media was changed twice a week.
(§5) Each cell encapsulated microspheres was then transferred to well in a 96-well polystyrene plate (Falcon). 150 μL of cell culture media was then pipetted into the wells and placed in the incubator and the media was changed twice a week.
The subject of data set [8] is co-culture (75% SKOV3 and 25% HFF) cells.
In data set [9] the test system is assembled cancer construct. Put plainly: Darkfield images of doxorubicin-treated cancer construct. The data set is classed as cell-based, human. From the text:
To print the assembled construct (n=3) a layer-by-layer approach was opted so as to not limit the height of the scaffold that can be constructed using the system. In this scheme the first layer of the scaffold (8 layers of fibre strands) was printed (as described earlier) and then 4 (2×2 fashion) live microspheres were inserted into the pores of the 3D plotted scaffold. This process was repeated to generate a second layer of the scaffold (4 layers of fibre strands) and then 4 more microspheres were inserted into the scaffold. But for the manually assembled scaffold, the whole scaffold was printed at once and the micro-tissues were inserted manually into pre-printed scaffolds in a similar format to the ones assembled with the automated system.
The cytotoxicity test was used to evaluate in vitro antitumor activity of Doxorubicin on cells in 2D, microspheres and assembled cancer construct. […] On day 1 of forming the microspheres, SKOV3, HFF and co-culture cancer constructs were manually assembled and transferred to a 24-well plate with 1.2 ml of media per well. On day 7, for the cytotoxicity test on 2D model, SKOV3s, HFFs and co-culture (75% SKOV3 and 25% HFF) cells were seeded onto a 48-well plate at 30,000 cells and 200 μl of media per well. […] Media with 5% FBS containing the specific concentration of drug was changed every 2 days. […]

For data set [10], the system named is normal human foreskin fibroblasts (HFF). As to conditions: Fibroblast.
The test system of data set [11] is human ovarian adenocarcinoma cell lines (SKOV3).
Procedure: as §4, §5
The subject of data set [12] is co-culture (75% SKOV3 and 25% HFF) cells. Put plainly: cells. As to conditions: Homo sapiens, 96 h.
Where [13] appears, read: read-out: IC50 Assembled construct.

Read-outs that look alike come from different tables or passages of the source.

As for `CC(C)(O)C(=O)c1ccc(OCCO)cc1` [UV+I2959, 1-[4-(2-hydroxyethoxy)-phenyl]-2-hydroxy-2-methyl-1-propane-1-one], the cell viability in [1] is 50%. Besides, the “number of cells attached” value in data set [2] was determined as 20 HACs/mm^2. Besides, the “cell morphology (live-dead stain)” value in data set [3] is reported as “the cells became rounded”. The “reduction of thickness (deformation of thickness)” value in data set [4] (3 mW/cm^2, 0.05 wt % I2959 or 0.2/2 Ru/SPS (mM)) was around 55%. The deformation of thickness result in data set [4] (3 mW/cm^2, 0.5 wt % I2959 or 2/20 Ru/SPS (mM), controls without oxygen <10%) is “comparable to the controls”. Moreover, in [5], the GAG/gel amounted to 0.1 µg/mg.

In the case of `COc1cccc2c1C(=O)c1c(O)c3c(c(O)c1C2=O)C[C@@](O)(C(=O)CO)C[C@@H]3O[C@H]1C[C@H](N)[C@H](O)[C@H](C)O1` [doxorubicin, Doxorubicin], the IC50 came to 160 nM in data set [6] (read-out: IC50 2D); 3810 nM in data set [6] (setting [13]); 180 nM in data set [6] (read-out: IC50 Microspheres); 50 nM in [7] (read-out: IC50 2D); 2410 nM in data set [7] (setting [13]); 150 nM in data set [7] (read-out: IC50 Microspheres). Further, the 50% inhibitory concentration (IC50) in data set [12] (read-out: IC50 2D) came out at 80 nM; in [12] (setting [13]) it was 5560 nM; in data set [12] (read-out: IC50 Microspheres), 290 nM. For the same molecule, the “Fold change in IC50 Assembled construct/microspheres” value in data set [8] is listed as 19.34; in [10] it was 21.41; in data set [11], 16.33. Moreover, the “Fold change in IC50 Assembled construct/monolayer” value was 70.14 in data set [8], 24.32 in [10] and 48.32 in data set [11]. For the same molecule, the “Fold change in IC50 Microspheres/monolayer” value in [8] is on record as 3.63; in data set [10], 1.14; in data set [11], 2.96. The “tissue present in cancer construct (darkfield images)” value in data set [9] (1 μM drug) is “atrophy of the tissue”; in [9] (10 μM drug), “almost no tissue present”.

In general, cell viability refers to the share of living cells, or the viability signal relative to a control. A high value points to better survival. As usually defined, the IC50 is the midpoint of a concentration-inhibition curve.
